Reference: PMC9330922, “Genomewide Analysis and Biological Characterization of Cathelicidins with Potent Antimicrobial Activity and Low Cytotoxicity from Three Bat Species” (Antibiotics, 2022)
No end group written: not given here.

Tested on: panel of 12 reference bacteria, comprised of 6 Gram-negative strains and 6 Gram-positive strains
Type: cell-based
Conditions: 6 h
Protocol: The antibacterial activities of the chemically synthesized peptides were evaluated against a panel of bacteria consisting of 6 Gram-negative strains, including E. coli ATCC 25922 (American Type Culture Collection, Manassas, VA, USA), P. aeruginosa ATCC 27853, S. Typhimurium ATCC 14028, A. baumannii KCTC (Korean Collection for Type Cultures, Jeongeup, Korea) 23254, K. pneumoniae KCTC 1726, and E. cloacae ATCC 13047, and 6 Gram-positive strains, including S. aureus ATCC 6538, B. cereus ATCC 10876, E. faecalis ATCC 29212, S. agalactiae ATCC 27956, S. dysgalactiae ATCC 27957, and S. equi ATCC 43079. Ampicillin (Sigma-Aldrich, St. Louis, MO, USA), chloramphenicol (Sigma-Aldrich), and gentamicin sulfate (Sigma-Aldrich) were used as controls for antibacterial activity. The MIC was determined by a colorimetric method using the Microbial Viability Assay Kit-WST (Dojindo, Kumamoto, Japan) according to the manufacturer’s manual and the Clinical and Laboratory Standards Institute (CLSI) guidelines (2018). Four colonies of each bacterium were inoculated into 5 mL of Luria-Bertani (LB) broth medium (BD Bioscience, Franklin Lakes, NJ, USA) or brain heart infusion broth (BHIB; BD Bioscience) at 37 °C for 6 h with shaking at 220 rpm. E. faecalis and streptococci were cultured in BHIB because of their slow growth, whereas all other bacteria were cultured in LB medium. The cells were washed by sterile saline (0.9% NaCl) twice and adjusted in a single well of a 96-well plate at a cell density of 1.5 × 10^5 CFU/well in accordance with 0.5 McFarland standard. Subsequently, 180 µL/well of fresh Mueller-Hinton broth (MHB; BD Bioscience), except for E. faecalis and streptococci using BHIB was added to the plate using BHIB. Final concentrations of 1–40 µg/mL (0.3–19.3 μM) of each peptide and reference antibiotic were added to each well. The plates were then incubated at 37 °C for 6 h. Subsequently, 10 µL of the coloring reagent was added, and the mixture was incubated at 37 °C for 2 h. The absorbance of each well was measured at 450 nm using a microplate spectrophotometer (Bio-Rad, xMark spectrophotometer, Hercules, CA, USA). MIC values were determined when the difference in the absorbance values between treatments and blanks (media and coloring reagent only) was less than 0.05. Experiments were performed in triplicate.

| Sequence | MIC, range over strains | MIC (no observable antibacterial activity) | MICs, range |
| --- | --- | --- | --- |
| ILGRLRDLLRRGGRKIGQGLERIGQRIQGFFSNREPMEES [HA-CATH] | 1.1 to 7.3 µM |  |  |
| LLRRGGRKIGQGLERIGQRIQGF [ΔHA-CATH] |  | > 13.7 µM |  |
| IAGRIAGKLIGDAINRHRERNRQRR [ΔPD-CATH] |  | > 13.7 µM |  |
| LNPLIKAGIFILKHRRPIGRGIEITGRGIKKFFSK [ML-CATH] | 0.3 to 8.8 µM |  | 0.5 to 0.8 µM |
| GIFILKHRRPIGRGIEIT [ΔML-CATH] |  | > 13.7 µM |  |
